Several values for one entry are separate records, joined by “and”; a condition that tells them apart may be missing. Identical values can stand only once.

By IC50 is commonly meant the point on the concentration scale where inhibition reaches its midpoint.

In the experiment the target is Nonstructural protein 3 (Zika virus, UniProt A0A024AXB9). Nature of the experiment: Functional biochemical assay to identify treatments for viral infectious disease that targets Zika NS2B-NS3 protease. Utilizing a direct enzyme activity measurement method, reading the fluorescence intensity is used to characterize the relative potency of inhibitors as IC50. Further details: species or system PRVABC59.
Nonstructural protein 3, sequence (A0A024AXB9 whole entry): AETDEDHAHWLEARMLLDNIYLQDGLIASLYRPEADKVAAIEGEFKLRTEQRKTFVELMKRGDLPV
`O=C(Nc1cc(Cl)cc(C(=O)Nc2ccc3c(c2)C[C@H](O)C3)c1)OCc1ccccc1`: the half-maximal inhibitory concentration (IC50) is > 99.5 µM.

In the case of `Cc1cc(C(=O)Nc2cccc(CN)c2)c2cnn(-c3ccc(F)cc3)c2n1`, the IC50 came out at 61.6 µM. This counts as double-digit micromolar.

`CC(C)c1cc(NC(=O)OCc2ccccc2)cc(C(=O)Nc2cccc(CN)c2)c1` displayed an IC50 of 20 µM.

As for `CNC(=O)C[C@H](Nc1ccccn1)c1cc(Cl)cc(Br)c1`, the concentration for half-maximal inhibition (IC50) was > 99.5 µM.

In turn, `CN(C)Cc1cc(Cl)cc(C(=O)Nc2cccc(CN)c2)c1` returned an IC50 of 7.99 µM.

Regarding `CCn1c(=O)c(N2CC[C@H](CO)C2)nc2ccc(C(=O)N(C)C)cc21`, the IC50 was > 99.5 µM.

Turning to `NCc1ccc(I)c(NC(=O)c2cc(Cl)cc(NC(=O)OCc3ccccc3)c2)c1`, it took 50.6 µM to reach half-maximal inhibition (IC50).

Consider `CCn1c(=O)c(N2CC[C@H](CO)C2)nc2cc(C(N)=O)ccc21`, for which the half-inhibitory concentration (IC50) is > 99.5 µM.

Regarding `O=C(Nc1cc(Cl)cc(C(=O)Nc2ccc(S(=O)(=O)N3CCNCC3)cc2)c1)OCc1ccccc1`, the IC50 was > 99.5 µM.

For the compound `O=C(Nc1cc(Cl)cc(C(=O)Nc2ccc3c(c2)OCO3)c1)OCc1ccccc1`, the concentration for half-maximal inhibition (IC50) was > 99.5 µM.

`NCc1cccc(NC(=O)c2cc(Cl)cc([C@H]3CCCCN3)c2)c1` had an IC50 of 7.17 µM. This counts as single-digit micromolar.

As to `O=C(Nc1cc(Cl)cc(C(=O)Nc2cccc([C@H]3C[C@H]3C(=O)O)c2)c1)OCc1ccccc1`, the half-inhibitory concentration (IC50) was 62.1 µM and 77.7 µM and 77.6 µM.

`NCc1cccc(NC(=O)c2cc(NC(=O)OCc3ccccc3)cc(C3CC3)c2)c1` registered an IC50 of 22.1 µM.

Regarding `C[C@H]1CN(C)C[C@@H](C(=O)Nc2cccc(CN)c2)O1`, the IC50 is > 99.5 µM.

With `Cc1cc(NC(=O)OCc2ccccc2)cc(C(=O)Nc2cccc(CN)c2)c1`, half-maximal inhibition (IC50) required 10.2 µM.

Turning to `CS(=O)(=O)c1cc(CN)cc(NC(=O)c2cc(Cl)cc(NC(=O)OCc3ccccc3)c2)c1`, the concentration for half-maximal inhibition (IC50) worked out at 23.3 µM.

As for `O=C(O)COc1cccc(NC(=O)c2cc(Cl)cc(NC(=O)OCc3ccccc3)c2)c1`, the IC50 was > 99.5 µM.

Turning to `CNC(=O)[C@H](Nc1cccc(N)n1)c1cc(Cl)cc(CN)c1`, the IC50 was > 99.5 µM.

For `C[C@H]1C[C@@H](C(=O)Nc2cccc(CN)c2)CC(=O)N1`, the IC50 is > 99.5 µM.

Take `O=C1NC[C@H](c2ccc(OCc3ccccc3)c(Br)c2)N1C(=O)OCc1ccccc1`: the concentration for half-maximal inhibition (IC50) is > 99.5 µM.

In turn, `CSC1(C(=O)N[C@H](CC(=O)Nc2cccc(CN)c2)c2ccc(OCc3ccccc3)c(Br)c2)CCC1` registered an IC50 of 11.8 µM. That is a double-digit micromolar value.

As to `O=Cc1cc(Cl)cc(NC(=O)OCc2ccccc2)c1`, the 50% inhibitory concentration (IC50) is > 99.5 µM.

For the compound `CCn1c(=O)c(N2CC[C@H](CO)C2)nc2cc(C(=O)O)ccc21`, the half-maximal inhibitory concentration (IC50) is > 99.5 µM.

`NCCNS(=O)(=O)c1ccc(NC(=O)c2cc(Cl)cc(NC(=O)OCc3ccccc3)c2)cc1` yielded a concentration for half-maximal inhibition (IC50) of 10.9 µM.

As to `NCc1cccc(NC(=O)C2CCNCC2)c1`, the 50% inhibitory concentration (IC50) is > 99.5 µM.

Turning to `NCc1cc(Br)cc(NC(=O)c2cc(Cl)cc(NC(=O)OCc3ccccc3)c2)c1`, the IC50 came to 16.7 µM.

As to `CC1(C)CCC(F)(F)C[C@H]1C(=O)Nc1cccc(CN)c1`, the IC50 was > 99.5 µM.

Regarding `CCn1ncc2c(C(=O)Nc3cccc(CN)c3)cc(C)nc21`, the IC50 was > 99.5 µM.

`O=C(Nc1cc(Cl)cc(C(=O)Nc2ccc(C3CCNCC3)cc2)c1)OCc1ccccc1` had a half-maximal inhibitory concentration (IC50) of 6.02 µM.

Regarding `O=C(Nc1cc(Cl)cc(C(=O)Nc2cccc(CN3CCCC3=O)c2)c1)OCc1ccccc1`, the concentration for half-maximal inhibition (IC50) was > 99.5 µM.

Compound `NCc1ccc(C#CCO)c(NC(=O)c2cc(Cl)cc(NC(=O)OCc3ccccc3)c2)c1` registered a half-inhibitory concentration (IC50) of 30.6 µM.

As for `O=C(Nc1cc(Cl)cc(C(=O)Nc2ccc3c(c2)OCCNC3)c1)OCc1ccccc1`, the midpoint of inhibition, the IC50, lay at 15.2 µM.

As to `NCc1cccc(NC(=O)c2c(C(F)(F)F)nc3n2CCCC3)c1`, the IC50 was > 99.5 µM.

As to `Cc1cnnc(C(=O)Nc2cccc(CN)c2)c1`, the IC50 was > 99.5 µM.

For the compound `N#CC[C@H](N)c1cccc(NC(=O)c2cc(Cl)cc(NC(=O)OCc3ccccc3)c2)c1`, the IC50 was > 99.5 µM.

With `CCn1c(=O)c(N2CC[C@H](CO)C2)nc2ccc(C(=O)NCc3ccccc3)cc21`, the concentration for half-maximal inhibition (IC50) is > 99.5 µM.

`O=C(Nc1cc(Cl)cc(C(=O)Nc2ccc(OC3CNC3)cc2)c1)OCc1ccccc1` returned an IC50 of 5.64 µM.

In the case of `Cc1nc(N2CCOCC2)sc1CC(=O)Nc1cccc(CN)c1`, the half-maximal inhibitory concentration (IC50) was > 99.5 µM.

Take `NCc1cccc(NC(=O)c2cc(NC(=O)OCc3ccccc3)cc(C(F)(F)F)c2)c1`: inhibition was half-maximal at 14.6 µM (IC50).

Consider `CS(=O)(=O)c1ccc(CN)cc1NC(=O)c1cc(Cl)cc(NC(=O)OCc2ccccc2)c1`, for which the 50% inhibitory concentration (IC50) came to 19.8 µM.

Take `O=C(O)CCc1ccc(NC(=O)c2cc(Cl)cc(NC(=O)OCc3ccccc3)c2)cc1`: the IC50 was > 99.5 µM.

The compound `CN(C)CCc1ccc(NC(=O)c2cc(Cl)cc(NC(=O)OCc3ccccc3)c2)cc1` gave a half-maximal inhibitory concentration (IC50) of 44.5 µM.

For the compound `N#CCc1cccc(NC(=O)c2cc(Cl)cc(NC(=O)OCc3ccccc3)c2)c1`, the IC50 was > 99.5 µM.

As for `CCn1c(=O)c(N2CC[C@H](CO)C2)nc2cc(C(=O)N(C)C)ccc21`, the 50% inhibitory concentration (IC50) was > 99.5 µM.

With `COc1ccc2nc(C)cc(C(=O)Nc3cccc(CN)c3)c2c1`, the IC50 is > 99.5 µM.

Regarding `NCc1ccc(COc2ccc(-c3ccc(N)nc3)c3c2OB(O)CC3)cc1`, the IC50 was > 99.5 µM.

For the compound `CC(C)(C)OC(=O)NCc1ccc(I)c(NC(=O)c2cc(Cl)cc(NC(=O)OCc3ccccc3)c2)c1`, the IC50 was > 99.5 µM.

For the compound `NCc1cccc(NC(=O)c2cncc(Cl)c2)c1`, the IC50 turned out to be 48.5 µM.

Regarding `CNC(=O)[C@H](Nc1ccccn1)c1cc(Cl)cc(CN)c1`, the half-maximal inhibitory concentration (IC50) is > 99.5 µM.

As to `O=C(Nc1cc(Cl)cc(C(=O)Nc2ccc(CCN3CCOCC3)cc2)c1)OCc1ccccc1`, the concentration for half-maximal inhibition (IC50) is > 99.5 µM.

In the case of `NCc1cccc(NC(=O)[C@H]2CC(=O)Nc3ccc(Br)cc32)c1`, the IC50 was > 99.5 µM.

Regarding `Cc1cc(C(=O)Nc2cccc(CN)c2)c2sc(N)nc2n1`, the half-inhibitory concentration (IC50) is > 99.5 µM.

On to `Cc1cc(C(=O)Nc2cccc(CN)c2)c2c(C)n[nH]c2n1`, for which the 50% inhibitory concentration (IC50) was > 99.5 µM.

For `Cc1cc(C(=O)Nc2cccc(CN)c2)cc(NCc2cnn(C)c2)n1`, the IC50 is > 99.5 µM.

`O=C(Nc1cc(Cl)cc(C(=O)Nc2ccc(N3CCNCC3)c(F)c2)c1)OCc1ccccc1` showed an IC50 of 15.7 µM.

In turn, `O=C(Nc1ccc2c(c1)CNC2)c1cc(O)nc(C2CC2)c1` showed an IC50 of 7.58 µM.

`N[C@H]1CC[C@H](c2ccc(NC(=O)c3cc(Cl)cc(NC(=O)OCc4ccccc4)c3)cc2)C1`: half-maximal inhibition (IC50) was put at 5.01 µM.

On to `O=C(Nc1cc(Cl)cc(C(=O)Nc2cccc(C(=O)O)c2)c1)OCc1ccccc1`, for which half-maximal inhibition (IC50) required 84 µM.

`O=C(Nc1cc(Cl)cc(C(=O)Nc2ccc3c(c2)COC3)c1)OCc1ccccc1`: the IC50 was > 99.5 µM.

Regarding `CCn1c(=O)c(N2CC[C@H](CO)C2)nc2cc(C(=O)NS(C)(=O)=O)ccc21`, the IC50 is > 99.5 µM.

In the case of `CCNC(=O)c1ccc2nc(N3CC[C@H](CO)C3)c(=O)n(CC)c2c1`, the IC50 is > 99.5 µM.

The compound `Cc1cc(C(=O)N[C@H](CC(=O)Nc2cccc(CN)c2)c2ccc(OCc3ccccc3)c(Br)c2)sn1` showed an IC50 of 6.83 µM.

Consider `CS(=O)(=O)Nc1cccc(NC(=O)c2cc(Cl)cc(NC(=O)OCc3ccccc3)c2)c1`, for which the IC50 was > 99.5 µM.

Take `O=C(Nc1cc(Cl)cc(C(=O)Nc2ccc(N3CCCNCC3)cc2)c1)OCc1ccccc1`: the IC50 came to 8.78 µM.

Regarding `CCn1c(=O)c(N2CC[C@H](CO)C2)nc2cc(C(=O)NCc3ccccc3)ccc21`, the 50% inhibitory concentration (IC50) was > 99.5 µM.

For the compound `CN(C)CC[C@H](NC(=O)c1cc(Cl)cc(NC(=O)OCc2ccccc2)c1)c1ccccc1`, the IC50 is > 99.5 µM.

Regarding `CS(=O)(=O)c1ccc(NC(=O)c2cc(Cl)cc(NC(=O)OCc3ccccc3)c2)cc1`, the IC50 was > 99.5 µM.

In turn, `NCc1cc(NC(=O)c2cc(Cl)cc(NC(=O)OCc3ccccc3)c2)cc(C2CC2)c1` came in with a half-inhibitory concentration (IC50) of 6.67 µM.

Compound `CCOc1cccc(-c2ccc(NS(=O)(=O)c3cc(F)c(Cl)cc3C(=O)O)cc2)c1` yielded a concentration for half-maximal inhibition (IC50) of 21.8 µM.

Regarding `CS(=O)(=O)c1cccc(NC(=O)c2cc(Cl)cc(NC(=O)OCc3ccccc3)c2)c1`, the concentration for half-maximal inhibition (IC50) was > 99.5 µM.

Regarding `C[C@H]1CNC[C@@H]1c1ccc(NC(=O)c2cc(Cl)cc(NC(=O)OCc3ccccc3)c2)cc1`, inhibition was half-maximal at 7.26 µM (IC50).

On to `CCn1c(=O)c(N2CC[C@@H](CO)C2)nc2ccc(C(=O)O)cc21`, for which the concentration for half-maximal inhibition (IC50) was > 99.5 µM.

Turning to `CNC(=O)C[C@H](Nc1ccccn1)c1cc(Cl)cc(CN)c1`, the half-maximal inhibitory concentration (IC50) is > 99.5 µM.

On to `CCNC(=O)c1ccc2c(c1)nc(N1CC[C@H](CO)C1)c(=O)n2CC`, for which the IC50 was > 99.5 µM.

Take `O=C(Nc1cc(Cl)cc(C(=O)Nc2ccc([C@]34CNC[C@H]3C4)cc2)c1)OCc1ccccc1`: the IC50 was 21.2 µM.

`C[C@H]1Oc2ccc(NC(=O)c3cc(Cl)cc(NC(=O)OCc4ccccc4)c3)cc2NC1=O`: the IC50 is > 99.5 µM.

Take `NCc1cccc(NC(=O)[C@H]2CCOC3(CCC3)C2)c1`: the 50% inhibitory concentration (IC50) was > 99.5 µM.

For the compound `C[C@H]1CN(Cc2ccccc2)C[C@@H](C(=O)Nc2cccc(CN)c2)O1`, the concentration for half-maximal inhibition (IC50) is > 99.5 µM.

With `NCc1cccc(NC(=O)c2cc(Cl)cc(Cl)c2OCc2ccccc2)c1`, the IC50 is > 99.5 µM.

For `O=C(Nc1cc(Cl)cc(C(=O)Nc2ccc(C3CNC3)cc2)c1)OCc1ccccc1`, the IC50 was found to be 5.99 µM.

As for `CCn1c(=O)c(N2CC[C@H](CO)C2)nc2ccc(C(=O)OC)cc21`, the IC50 was > 99.5 µM.

Consider `COC1(C(=O)N[C@H](CC(=O)Nc2cccc(CN)c2)c2ccc(OCc3ccccc3)c(Br)c2)CC1`, for which half-maximal inhibition (IC50) required 48.7 µM.

For the compound `COC(=O)[C@]12CC[C@](C(=O)Nc3cccc(CN)c3)(COC1)C2`, the half-inhibitory concentration (IC50) was > 99.5 µM.

As for `CN1CCc2c(cccc2NC(=O)c2cc(Cl)cc(NC(=O)OCc3ccccc3)c2)C1`, the IC50 is > 99.5 µM.

For the compound `O=C(Nc1cc(Cl)cc(C(=O)Nc2ccc3c(c2)C(=O)OC3)c1)OCc1ccccc1`, the IC50 was > 99.5 µM.

For `N#Cc1cc(NC(=O)OCc2ccccc2)cc(C(=O)Nc2cccc(CN)c2)c1`, half-maximal inhibition (IC50) required 15.4 µM. That is a double-digit micromolar value.

For the compound `Cc1cc(C(=O)Nc2cccc(CN)c2)c2c(n1)CCCC2`, the IC50 was > 99.5 µM.

On to `Cc1[nH]c2ccc(Br)cc2c1CC(=O)Nc1cccc(CN)c1`, for which the IC50 is > 99.5 µM.

As for `O=C(Nc1cc(Cl)cc(C(=O)Nc2ccc3c(c2)CNCC3)c1)OCc1ccccc1`, 3.4 µM corresponded to half-maximal inhibition (IC50).

As to `NCc1cccc(NC(=O)[C@@H]2CCCCN2)c1`, the half-inhibitory concentration (IC50) is > 99.5 µM.

In the case of `C[C@H]1C[C@@H](C(=O)Nc2cccc(CN)c2)CCO1`, the half-inhibitory concentration (IC50) is > 99.5 µM.

Values taken from ChEMBL document CHEMBL5604062, “ASAP - ZIKV NS2B-NS3 protease fluorescence dose response” (2024).
